{"source": "patent EP2265599B1", "about": "“CRYSTAL FORM OF PHENYLAMINOPYRIMIDINE DERIVATIVE” (Natco Pharma Limited, priority 2008, dated 2009)", "key": {"K562 cells": {"test_system": "K562 cells", "test": "Spleenic enlargement and Crk immunocytochemistry of spleen in nude mice implanted with K562 cells", "assay_type": "in vivo", "settings": "ip injections", "method": "Spleen and any secondary tumors were harvested, fixed in formaldehyde and paraffin embedded as per standard protocols. Paraffin section were obtained and processed for immunocytochemistry. The rehydrated sections were treated with 0.3% H2O2 to inactivate any native peroxidases prior to immuno-probing. The sections were blocked with filter sterilized (0.22µm) 1% BSA-PBS at room temperature for 1h. Following blocking, the sections were immuno-probed with a human specific anti-Crk monoclonal primary antibody raised in rabbit against a synthetic peptide corresponding to residues in the SH2 domain, near the N-term of human CrkL protein (Abcam, Cambridge, MA, USA) in 1%BSA-PBS overnight. Secondary antibody (anti-rabbit) conjugated to HRP was used to detect the presence of primary antibody. The sections were briefly rinsed three times in PBS solution after immuno-probing with secondary antibody, and DAB HRP substrate was added per manufacture's instructions (Sigma St Louis MO USA). […] For negative controls primary antibody were eliminated. Leukemic mice spleen served as positive controls.\nMice were sacrificed after a decrease in LGI was observed and spleen harvested. […] Control mice also developed random subcutaneous tumors showing Crk expression, indicative of the presence of K562 cells."}, "Baf3Wt": {"test_system": "Baf3Wt", "test": "In vivo anti-leukemic activity, blast cell count in blood smears, Baf3Wt implanted nude mice", "settings": "Imatinib 10mg/kg, AN019 20mg/kg, AN024 20mg/kg, oral gavage or ip from day 15; up to day 42", "description": "(§1) Blood smears were obtained via the tail vein or via the femoral vein every 6th day and blast cells counted and graphically represented.\n(§2) Abdominal swelling and decrease in activity was monitored daily, blood smear taken via the tail vein or the femoral vein every 6th day and H&E stained as per standard protocols. 42 days after implantation, mice were sacrificed and spleens harvested.\n(§3) Nude mice were intraperitoneally implanted with Baf3 mutant cells (wt, T315I, M351T or E255K). […] Blood was drawn from the femoral vein or tail vein every 6th day and blast cell count determined and graphically represented."}, "[1]": {"test_system": "Glioma xenograft cells 4910", "test": "In vitro angiogenic assay (conditioned media on human dermal endothelial cells), 4910", "assay_type": "cell-based", "settings": "4910 cells, with and without radiation", "method": "The in vitro angiogenesis of 4910, 5310 and U87 glioma cells and MDAMB231 and ZR71 breast cancer cells in the presence of specified concentrations of compounds were determined as follows, cells (2x10^4/well) were seeded in 8-well chamber slides and were treated with various concentrations of test compounds. After a 24 h incubation period, the conditioned media was removed and added to a 4x 10^4 human dermal endothelial cell (monolayer in 8-well chamber slides) and the human dermal endothelial cells were allowed to grow for 72 h. Cells were then fixed in 3.7% formaldehyde and stained with H&E and photographed."}, "4910": {"test_system": "4910", "test": "Matrigel invasion assay (modified Boyden chamber), 4910", "assay_type": "cell-based, human", "settings": "cells treated 48 h", "method": "(§4) The in vitro invasiveness of 4910, 5310 and U87 glioma cells and MDAMB231 and ZR71 breast cancer cells in the presence of specified concentrations of compounds were assessed using a modified Boyden chamber assay. Cells were treated with these compounds for 48 h. 1x10^6 cells were suspended in 600µl of serum-free medium supplemented with 0.2% BSA and placed in the upper compartment of the transwell chambers (Coming Costar Fischer Scientific Cat #07-200-158, Pittsburgh PA) coated with Matrigel (0.7 mg/ml). The lower compartment of the chamber was filled with 200 µl of serum medium and the cells were allowed to migrate for 24 h. After incubation, the cells were fixed and stained with Hema-3 and quantified as previously described (Mohanam et al. 1993). The migrated cells were imaged microscopically to determine the reduction in invasiveness induced by the compounds of this invention.\n(§5) The in vitro invasiveness of 4910, 5310 and U87 glioma cells and MDAMB231 and ZR71 breast cancer cells in the presence of specified concentrations of compounds were assessed using a modified Boyden chamber assay. Cells were treated with these compounds for 48 h."}, "[2]": {"test_system": "K562 luc human leukemia cells", "test": "Drug effectiveness (De) from in vivo luciferase studies", "design": "species or system nude mice", "description": "[formula] Where: • Σalive = total number of mice alive per concentration at the end of experiment times photon count, Eluc = total number of mice alive showing luciferase expression per concentration at end of experiment and c represents control untreated animals times photon count and ∑c-initial represents the initial number of animals in control at start of experiment times photon count."}, "Baf3M351T": {"test_system": "Baf3M351T", "test": "In vivo anti-leukemic activity, blast cell count in blood smears, Baf3M351T implanted nude mice", "settings": "Imatinib 10mg/kg, AN019 20mg/kg, AN024 20mg/kg, oral gavage or ip from day 15; up to day 42", "description": "as §1, §2, §3"}, "5310": {"test_system": "5310", "test": "Matrigel invasion assay (modified Boyden chamber), 5310", "assay_type": "cell-based", "settings": "cells treated 48 h", "method": "as §4, §5"}}, "note": "“Also recorded” adds a separate entry of the source.", "data": [{"smiles": "Cc1ccc(NC(=O)c2cc(C(F)(F)F)cc(C(F)(F)F)c2)cc1Nc1nccc(-c2cccnc2)n1", "note": "[AN019, (3,5-bis trifluoromethyl)-N-[4-methyl-3-(4-pyridin-3yl-pyrimidin-2ylamino)-phenyl]-benzamide]", "values": [{"measurement": "Crk expression in spleen (immunohistochemistry)", "setting": "K562 cells; paraffin sections of spleen", "value": "basal levels of Crk expression; also recorded: only basal level expression of Crk expression comparable to negative control"}, {"measurement": "Spleenic enlargement (gross observation)", "setting": "K562 cells; spleen harvested after decrease in LGI", "value": "did not show any spleenic enlargement"}, {"measurement": "blast cell count in blood smears", "setting": "Baf3Wt", "value": "complete regression of leukemic blast cells"}, {"measurement": "inhibition of angiogenesis", "setting": "[1]", "value": "inhibition of angiogenesis similar to MDA-MB-231 cells with an increase in angiogenic inhibition after radiation"}, {"measurement": "+Radiation % Invasion", "setting": "4910; 4910, with radiation", "value": 15, "unit": "%"}, {"measurement": "-Radiation % Invasion", "setting": "4910; 4910, without radiation", "value": 42, "unit": "%"}, {"measurement": "De (drug effectiveness)", "setting": "[2]; 5mg/kg", "value": 25.82, "unit": "%"}, {"measurement": "De (drug effectiveness)", "setting": "[2]; 10mg/kg", "value": 78.20, "unit": "%"}, {"measurement": "De (drug effectiveness)", "setting": "[2]; 20mg/kg", "value": 83.40, "unit": "%"}, {"measurement": "De (drug effectiveness)", "setting": "[2]; 40mg/kg", "value": 85.20, "unit": "%"}, {"measurement": "blast cell count in blood smears", "setting": "Baf3M351T", "value": "significant decrease in blast cell count"}, {"measurement": "+Radiation % Invasion", "setting": "5310; 5310, with radiation", "value": 6, "unit": "%"}, {"measurement": "-Radiation % Invasion", "setting": "5310; 5310, without radiation", "value": 5, "unit": "%"}]}]}
